How the values were obtained:
acid ceramidase (AC) [1] = target: T1, acid ceramidase (AC) (Homo sapiens, UniProt Q13510); assay: Hydrolysis of RBM5-177 by lysates of AC overexpressing cells, UPLC-HRMS; type: biochemical; design: expressed in transfected cells; host or cells: A375/+Dox (overexpressing AC); details: lysates from A375/+Dox cells, 30 min
T1 sequence (Q13510 143-395 limits assumed): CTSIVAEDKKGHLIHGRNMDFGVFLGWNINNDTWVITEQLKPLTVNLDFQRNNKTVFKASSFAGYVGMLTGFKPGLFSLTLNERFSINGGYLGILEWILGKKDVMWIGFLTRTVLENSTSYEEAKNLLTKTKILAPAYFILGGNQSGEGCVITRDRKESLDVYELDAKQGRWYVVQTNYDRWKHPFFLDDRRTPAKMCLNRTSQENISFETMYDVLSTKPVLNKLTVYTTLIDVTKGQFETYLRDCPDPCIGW
T1 sequence (Q13510 22-142 limits assumed): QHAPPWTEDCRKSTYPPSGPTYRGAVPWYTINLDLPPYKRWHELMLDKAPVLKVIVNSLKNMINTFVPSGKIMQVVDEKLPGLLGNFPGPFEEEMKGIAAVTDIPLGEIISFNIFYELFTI
Protocol: Cells were suspended in the appropriate volume of a 0.25 M saccharose solution with the proteases inhibitors aprotinin (1 mg/ml), leupeptin (1 mg/mml) and PMSF (100 mM). The suspension was submitted to three cycles of a 5 s sonication (probe) at 10 watts/5 s resting on ice. The cell lysate was centrifuged at 600 g for 5 min. The supernatant was collected and protein concentration was determined as specified below.
Cells were seeded at 5 × 10^5 cells/mL into 6 well plates (1 mL/well) and were allowed to adhere for 24 h. Medium was replaced with fresh medium containing RBM5-177, RBM5-019 or RBM2-37 (5 µM final concentration). After 30 min, medium was removed; cells were washed with 400 µL PBS and harvested with 400 µL Trypsin-EDTA and 600 µL of medium. NC recombinant enzyme, […], MEF5 or microsomes from HeLa T-Rex ACER1-TET-ON and HeLa T-Rex […] activity buffer. Cell pellets were resuspended with 100 µL of H2O and mixed with 750 µL of methanol: chloroform, 2:1. Samples were heated at 48°C overnight and next day, 75 µL of 1 M KOH in methanol were added, followed by 2 h incubation at 37°C. Afterwards, the saponification was neutralised with 75 µL of 1 M acetic acid and solvent was removed using a Speed Vac Savant SPD131 DDA (Thermo Scientific). […]

acid ceramidase (AC) [2] = target: T1, acid ceramidase (AC); assay: AC activity by flow cytometry with RBM5-177/CO-1 in intact cells; type: cell-based; design: expressed in transfected cells; host or cells: A375/+Dox and FD/AC (overexpressing AC); A375/-Dox and A549 (endogenous AC)
Protocol: Cells were seeded at 1 × 10^5 cells/mL into 6 well plates (1 mL/well) and were allowed to adhere for 24 h. Medium was replaced with fresh medium containing Soclac (5 µM final concentration) and incubated for 1 h. After this time, the medium was replaced with RBM5-177, RBM5-019 or RBM2-37 (5 µM final concentration) +/- Soclac and incubated for 20 min. In the experiments with DM120, the compound, Soclac and RBM5-177 were incubated together for 4 h. After probes incubation, the medium was replaced with fresh medium containing CO-1 (1 µM final concentration), and cells were incubated for 10 min. Then cells were washed 3 times with DMEM for 5 min at 37 °C, and finally washed with 400 µL PBS and harvested with 400 µL Trypsin-EDTA and 600 µL of medium. Pellets were resuspended with 200 µL of PBS and stained cells were analyzed by using a Guava EasyCyte™ flow cytometer (Merck Millipore, Billerica, MA) measuring green fluorescence (488/525 nm). Data analysis was performed using the Multicycle AV program (Phoenix Flow Systems, San Diego, CA).

increase in the number of fluorescent counts over FD (acid ceramidase (AC) [2]; FD/AC cells versus AC deficient FD cells, RBM5-177 5 µM 4 h, CO-1) | effect on number of fluorescent counts (acid ceramidase (AC) [2]; A375 cells, SOCLAC 5 µM 1 h pre-incubation (Fig. 5A, 5D)) | effect on number of labelled cells (acid ceramidase (AC) [2]; FD/AC cells, SOCLAC 5 µM 1 h preincubation (Fig. 5C)) | Structure (SMILES) | RBM5-19 formation (hydrolysis as substrate) (acid ceramidase (AC) [1]; RBM5-177 5 µM) | inhibition of the formation of RBM5-19 from RBM5-177 (acid ceramidase (AC) [1]; SOCLAC 5 µM, 1 h, then RBM5-177 5 µM) | effect on number of labelled cells (acid ceramidase (AC) [2]; A549 cell line, SOCLAC 5 µM 1 h (Fig. 5B, 5E))
7 fold | – | – | CCCCCCCC(=O)N[C@@H](C)[C@H](O)CCCCCCCCCCCCN=[N+]=[N-] [RBM5-177, N-((2S,3R)-15-azido-3-hydroxypentadecan-2-yl)octanamide] | transformed into the free amine only by AC | – | –
– | significantly decreased | reduced down to FD levels | CCCCCCCCCCCCC/C=C/[C@@H](O)[C@H](CO)NC(=O)CCl [SOCLAC] | – | totally prevented the formation of RBM5-19 from RBM5-177 | significantly decreasing the number of labelled cells

— patent EP3925949A1, “AZIDO COMPOUNDS AND METHOD FOR MONITORING ACID CERAMIDASE ACTIVITY IN INTACT CELLS USING THEM” (Consejo Superior de Investigaciones Científicas (CSIC), priority 2020, dated 2021)
